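Five concentrations, 48 hours, 96-well plates. TGI denotes the concentration required for complete inhibition of growth.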

Results on 16 compounds are retold here after PubChem BioAssay (NCI).

The first assay has as its system NCI-H226 lung. In words: NCI anticancer screen, dose series, 48 h.
For the compound `O=c1n(/N=C/c2ccccc2)c(=O)n2n1C1C=CC2CC1`, the TGI is over 100 µM.

Compound `COc1ccc(C2c3cc4c(cc3C(O)C3CCC(=O)N23)OCO4)cc1` (stereo not drawn) registered a TGI of over 100 µM.

Compound `COc1cc2c(cc1OC)-c1[nH]c3ccc(C#N)cc3c1CC(=O)N2` displayed a TGI of over 100 µM.

`NCCCNCCCNCCCN`: the TGI was over 100 µM.

With `Cn1nc(Cc2ccc(Cl)cc2)n(N)c1=O`, the TGI was over 100 µM.

The compound `COc1cc(Br)c(OC)c2c(OC)cc(C)cc12` returned a TGI of over 100 µM.

In turn, `CCOC(=O)/C(N=Nc1ccc(-n2c(C)nc3ccccc3c2=O)cc1)=C(/C)O` had a TGI of 80.1 µM.

For the next assay, the system named is HCT-15 colon. Kind of assay: NCI anticancer screen, dose series, 48 h.
Take `Nc1ccn(C2CC(O)C(COP(O)(=S)OC3CC(n4ccc(N)nc4=O)OC3CO)O2)c(=O)n1` (stereo not drawn): the TGI is over 100 µM.

`COC(=O)N1C[C@@]2(C=CC3(CC2)OCCO3)c2ccccc21`: the TGI was over 100 µM.

For `COc1ccccc1C1CC(=O)CC(c2ccccc2OC)C12C(=O)NC(=S)NC2=O` (stereo not drawn), the TGI was over 100 µM.

`COc1cc(S(=O)(=O)Nc2ccc(-c3csc(N4C(=O)CSC4c4cccs4)n3)cc2)ccc1Cl` (stereo not drawn) displayed a TGI of over 100 µM.

`NCCCCNCCCN1CC1` showed a TGI of over 100 µM.

`O=c1n(/N=C/c2ccccc2)c(=O)n2n1C1C=CC2CC1`: the TGI is over 100 µM.

With `COc1ccc(C2c3cc4c(cc3C(O)C3CCC(=O)N23)OCO4)cc1` (stereo not drawn), the TGI is over 100 µM.

`COc1cc2c(cc1OC)-c1[nH]c3ccc(C#N)cc3c1CC(=O)N2` gave a TGI of over 100 µM.

`NCCCNCCCNCCCN`: the TGI is over 100 µM.

`Cn1nc(Cc2ccc(Cl)cc2)n(N)c1=O` returned a TGI of over 100 µM.

As for `COc1cc(Br)c(OC)c2c(OC)cc(C)cc12`, the TGI was over 100 µM.

With `CCOC(=O)/C(N=Nc1ccc(-n2c(C)nc3ccccc3c2=O)cc1)=C(/C)O`, the TGI is over 100 µM.

With `CCc1nnc(CC)n1NCCCC(=O)O`, the TGI was over 100 µM.

As for `COc1ccc(OC)c2sc(N3C(=O)/C(=C/Cc4ccco4)N=C3c3ccccc3)nc12`, the TGI is over 100 µM.

`CC(C)c1ccccc1SC1CC(=O)CC(Sc2ccccc2C(C)C)C12O[C@H](c1ccccc1)[C@@H](c1ccccc1)O2` (stereo partly drawn) registered a TGI of over 100 µM.

`CSC1=N[C@H](c2ccccc2)CS1` registered a TGI of over 100 µM.

In another assay the test system is MDA-N. Kind of assay: NCI anticancer screen, dose series, 48 h.
`Nc1ccn(C2CC(O)C(COP(O)(=S)OC3CC(n4ccc(N)nc4=O)OC3CO)O2)c(=O)n1` (stereo not drawn) gave a TGI of over 100 µM.

As to `COC(=O)N1C[C@@]2(C=CC3(CC2)OCCO3)c2ccccc21`, the TGI is over 100 µM.

In turn, `COc1ccccc1C1CC(=O)CC(c2ccccc2OC)C12C(=O)NC(=S)NC2=O` (stereo not drawn) returned a TGI of 52.5 µM.

Take `COc1cc(S(=O)(=O)Nc2ccc(-c3csc(N4C(=O)CSC4c4cccs4)n3)cc2)ccc1Cl` (stereo not drawn): the TGI amounted to 98.2 µM.

In turn, `NCCCCNCCCN1CC1` came in with a TGI of over 100 µM.

Compound `O=c1n(/N=C/c2ccccc2)c(=O)n2n1C1C=CC2CC1` displayed a TGI of over 100 µM.

Regarding `COc1ccc(C2c3cc4c(cc3C(O)C3CCC(=O)N23)OCO4)cc1` (stereo not drawn), the TGI was over 100 µM.

As for `COc1cc2c(cc1OC)-c1[nH]c3ccc(C#N)cc3c1CC(=O)N2`, the TGI was over 90.6 µM.

The compound `NCCCNCCCNCCCN` returned a TGI of over 100 µM.

`Cn1nc(Cc2ccc(Cl)cc2)n(N)c1=O` showed a TGI of over 100 µM.

`CCOC(=O)/C(N=Nc1ccc(-n2c(C)nc3ccccc3c2=O)cc1)=C(/C)O` displayed a TGI of over 100 µM.

`CCc1nnc(CC)n1NCCCC(=O)O` had a TGI of over 100 µM.

In turn, `COc1ccc(OC)c2sc(N3C(=O)/C(=C/Cc4ccco4)N=C3c3ccccc3)nc12` yielded a TGI of 48.3 µM.

As for `CC(C)c1ccccc1SC1CC(=O)CC(Sc2ccccc2C(C)C)C12O[C@H](c1ccccc1)[C@@H](c1ccccc1)O2` (stereo partly drawn), the TGI turned out to be 47.5 µM.

As for `CSC1=N[C@H](c2ccccc2)CS1`, the TGI was over 100 µM.

The next assay deals with RPMI-8226 leukemia. In words: NCI anticancer screen, dose series, 48 h.
In turn, `Nc1ccn(C2CC(O)C(COP(O)(=S)OC3CC(n4ccc(N)nc4=O)OC3CO)O2)c(=O)n1` (stereo not drawn) gave a TGI of over 100 µM.

`COC(=O)N1C[C@@]2(C=CC3(CC2)OCCO3)c2ccccc21` displayed a TGI of over 100 µM.

Consider `COc1ccccc1C1CC(=O)CC(c2ccccc2OC)C12C(=O)NC(=S)NC2=O` (stereo not drawn), for which the TGI is 52.7 µM.

`COc1cc(S(=O)(=O)Nc2ccc(-c3csc(N4C(=O)CSC4c4cccs4)n3)cc2)ccc1Cl` (stereo not drawn) displayed a TGI of 66.8 µM.

Regarding `NCCCCNCCCN1CC1`, the TGI was over 100 µM.

`O=c1n(/N=C/c2ccccc2)c(=O)n2n1C1C=CC2CC1`: the TGI is over 100 µM.

For `COc1ccc(C2c3cc4c(cc3C(O)C3CCC(=O)N23)OCO4)cc1` (stereo not drawn), the TGI was over 100 µM.

For `NCCCNCCCNCCCN`, the TGI turned out to be 41.1 µM.

The compound `Cn1nc(Cc2ccc(Cl)cc2)n(N)c1=O` had a TGI of over 100 µM.

In turn, `COc1cc(Br)c(OC)c2c(OC)cc(C)cc12` showed a TGI of over 100 µM.

The compound `CCOC(=O)/C(N=Nc1ccc(-n2c(C)nc3ccccc3c2=O)cc1)=C(/C)O` came in with a TGI of over 100 µM.

`CCc1nnc(CC)n1NCCCC(=O)O` displayed a TGI of over 100 µM.

In turn, `COc1ccc(OC)c2sc(N3C(=O)/C(=C/Cc4ccco4)N=C3c3ccccc3)nc12` yielded a TGI of over 100 µM.

With `CC(C)c1ccccc1SC1CC(=O)CC(Sc2ccccc2C(C)C)C12O[C@H](c1ccccc1)[C@@H](c1ccccc1)O2` (stereo partly drawn), the TGI is 61.3 µM.

Compound `CSC1=N[C@H](c2ccccc2)CS1` returned a TGI of over 100 µM.

Another assay deals with SF-539 CNS. In words: NCI anticancer screen, dose series, 48 h.
In turn, `Nc1ccn(C2CC(O)C(COP(O)(=S)OC3CC(n4ccc(N)nc4=O)OC3CO)O2)c(=O)n1` (stereo not drawn) came in with a TGI of over 100 µM.

`COc1ccccc1C1CC(=O)CC(c2ccccc2OC)C12C(=O)NC(=S)NC2=O` (stereo not drawn) had a TGI of over 100 µM.

As for `COc1cc(S(=O)(=O)Nc2ccc(-c3csc(N4C(=O)CSC4c4cccs4)n3)cc2)ccc1Cl` (stereo not drawn), the TGI came to 61.6 µM.

`NCCCCNCCCN1CC1` gave a TGI of 2.59 µM.

The compound `O=c1n(/N=C/c2ccccc2)c(=O)n2n1C1C=CC2CC1` had a TGI of over 100 µM.

As for `COc1ccc(C2c3cc4c(cc3C(O)C3CCC(=O)N23)OCO4)cc1` (stereo not drawn), the TGI was over 100 µM.

In the case of `COc1cc2c(cc1OC)-c1[nH]c3ccc(C#N)cc3c1CC(=O)N2`, the TGI is over 100 µM.

In turn, `Cn1nc(Cc2ccc(Cl)cc2)n(N)c1=O` gave a TGI of over 100 µM.

`COc1cc(Br)c(OC)c2c(OC)cc(C)cc12` displayed a TGI of over 100 µM.

The compound `CCOC(=O)/C(N=Nc1ccc(-n2c(C)nc3ccccc3c2=O)cc1)=C(/C)O` registered a TGI of over 100 µM.

As for `CCc1nnc(CC)n1NCCCC(=O)O`, the TGI was over 100 µM.

Compound `COc1ccc(OC)c2sc(N3C(=O)/C(=C/Cc4ccco4)N=C3c3ccccc3)nc12` registered a TGI of over 100 µM.

Compound `CC(C)c1ccccc1SC1CC(=O)CC(Sc2ccccc2C(C)C)C12O[C@H](c1ccccc1)[C@@H](c1ccccc1)O2` (stereo partly drawn) came in with a TGI of over 100 µM.

Compound `CSC1=N[C@H](c2ccccc2)CS1` displayed a TGI of over 100 µM.

A further assay has as its system SF-295 CNS. Kind of assay: NCI anticancer screen, dose series, 48 h.
In turn, `Nc1ccn(C2CC(O)C(COP(O)(=S)OC3CC(n4ccc(N)nc4=O)OC3CO)O2)c(=O)n1` (stereo not drawn) showed a TGI of over 100 µM.
